Like-named read-outs stand apart in the source and are kept apart here.
Experiments:
ASGPR = molecular target: T1, ASGPR (Homo sapiens, UniProt P07306); experiment: Affinity to ASGPR by surface plasmon resonance (SPR)
T1 sequence (P07306 1-291): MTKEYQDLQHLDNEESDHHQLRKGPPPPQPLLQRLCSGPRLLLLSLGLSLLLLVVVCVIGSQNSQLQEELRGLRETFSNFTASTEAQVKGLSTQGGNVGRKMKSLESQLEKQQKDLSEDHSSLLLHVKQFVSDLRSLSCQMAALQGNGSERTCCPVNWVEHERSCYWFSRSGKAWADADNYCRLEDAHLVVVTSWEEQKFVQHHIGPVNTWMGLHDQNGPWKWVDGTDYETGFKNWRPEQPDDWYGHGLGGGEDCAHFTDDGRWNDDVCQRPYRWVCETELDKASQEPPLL

IgG = experiment: Affinity to IgG by surface plasmon resonance (SPR); assay type: binding
Experimental: Immobilization levels ranging from 1000-1300 resonance units (RU) are obtained. The running buffer is 10 mM HEPES, pH 7.4, 400 mM NaCl, 0.005% P20, […].

HepG2 cells = experiment: Cellular uptake assay of AF488-labeled antibody (HepG2); assay type: cell-based
Method in brief: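 HepG2 cells given 100 nM AF488-labeled human IgG or DNP antibody plus serial dilutions of matching degrader (0.1% DMSO final), 6 h at 37° C. Methanol-fixed, DAPI-stained and imaged by high-content analysis. Value is the fraction of AF488-positive cells over total DAPI-counted cells.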

[1] = molecular target: T2, ASGPR receptor on the cell surface (HepG2 cells) (Homo sapiens, UniProt P07306); experiment: Ternary complex formation assay (flow cytometry, HepG2); assay type: cell-based
T2 construct: host or cells: HepG2
T2 sequence (P07306 1-291): T1 sequence (P07306 1-291)
T2 sequence (P07307 1-311 partner): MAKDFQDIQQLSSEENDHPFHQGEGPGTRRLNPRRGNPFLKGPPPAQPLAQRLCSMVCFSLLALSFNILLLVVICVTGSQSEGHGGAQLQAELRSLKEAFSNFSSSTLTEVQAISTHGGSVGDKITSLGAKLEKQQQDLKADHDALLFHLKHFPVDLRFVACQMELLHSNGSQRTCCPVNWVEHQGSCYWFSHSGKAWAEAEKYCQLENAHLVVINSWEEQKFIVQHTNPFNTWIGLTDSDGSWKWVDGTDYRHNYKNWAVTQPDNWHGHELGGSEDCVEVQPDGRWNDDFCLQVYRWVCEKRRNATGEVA
Method in brief: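 HepG2 cells (1×10^5/well) incubated 1 h at 4 °C with 100 nM AF488-labeled anti-human IgG plus serial IgG-based degrader, or 100 nM AF488 rabbit anti-DNP plus serial DNP-based degrader. After washing, cell-associated AF488 MFI read by flow cytometry; peak MFI marks optimal degrader concentration for ternary complex.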

[2] = HepG2 cells, read-out: Uptake EC50
[3] = HepG2 cells, ternary complex formation, read-out: TCF EC50
[4] = Homo sapiens, HepG2, 6 h, read-out: Uptake Assay EC50 (nM)
[5] = Ternary Complex EC50 (nM), HepG2 cells, 100 nM AF488-labeled antibody, 1 hour at 4° C., class symbols
[6] = Biacore 8K, 25° C., IgG on CM5 chip, read-out: IgG SPR Binding Kd
[7] = HepG2 cells, 100 nM AF488-labeled antibody, 37° C. for 6 hours, class symbols, read-out: Uptake Assay EC50

Row | Compound | Kd (ASGPR) [nM] | Kd (IgG; SPR, read-out: IgG KD) [nM] | EC50 (HepG2 cells; [2]) [nM] | EC50 [1] [nM] | further results
1 | CC(C)C[C@@H]1NC(=O)[C@H](Cc2c[nH]cn2)NC(=O)[C@H](Cc2c[nH]c3ccccc23)NC(=O)[C@H](C)NC(=O)[C@@H]2CSSC[C@H](NC(=O)[C@H](Cc3c[nH]c4ccccc34)NC(=O)[C@H](C(C)C)NC(=O)[C@H](CC(C)C)NC(=O)[C@H](CCC(=O)O)NC(=O)CNC1=O)C(=O)N[C@@H]([C@@H](C)O)C(=O)N1CCC[C@@H]1C(=O)N1C[C@@H](NC(=O)CCOCCOCCOCCOCCNC(=O)CCCc3cn(CCCCCC(=O)NC(COCCC(=O)NCCOCCOCCOCCOC[C@@]45CO[C@@H](O4)[C@H](NC(=O)C(F)(F)F)[C@@H](O)[C@H]5O)(COCCC(=O)NCCOCCOCCOCCOC[C@@]45CO[C@@H](O4)[C@H](NC(=O)C(F)(F)F)[C@@H](O)[C@H]5O)COCCC(=O)NCCOCCOCCOCCOC[C@@]45CO[C@@H](O4)[C@H](NC(=O)C(F)(F)F)[C@@H](O)[C@H]5O)nn3)C[C@H]1C(=O)N[C@@H](CC(=O)O)C(=O)N2 [Compound 95] | < 100 | < 100 | < 100 | < 100 | 
2 | CC(C)C[C@@H]1NC(=O)[C@H](Cc2cnc[nH]2)NC(=O)[C@H](Cc2c[nH]c3ccccc23)NC(=O)[C@H](C)NC(=O)[C@@H]2CSSC[C@H](NC(=O)[C@H](Cc3c[nH]c4ccccc34)NC(=O)[C@H](C(C)C)NC(=O)[C@H](CC(C)C)NC(=O)[C@H](CCC(=O)O)NC(=O)CNC1=O)C(=O)N[C@@H]([C@@H](C)O)C(=O)N1CCC[C@@H]1C(=O)N1C[C@H](NC(=O)COCCOCC(=O)NC[C@H]3OC[C@H](Nc4cncc(C(F)(F)F)n4)[C@@H](O)[C@H]3O)C[C@H]1C(=O)N[C@@H](CC(=O)O)C(=O)N2 [Compound 91] |  | < 100 | < 100 |  | EC50 [1, 3]: < 100 nM
3 | CC(=O)N[C@H]1[C@H](OCCOCCOCCOCCNC(=O)CCOCC(COCCC(=O)NCCOCCOCCOCCO[C@@H]2O[C@H](CO)[C@H](O)[C@H](O)[C@H]2NC(C)=O)NC(=O)CCCCCn2cc(CCCC(=O)NCCOCCOCCOCCOCCC(=O)N[C@H]3C[C@H]4C(=O)N[C@@H](CC(=O)O)C(=O)N[C@H]5CSSC[C@H](NC(=O)[C@H](Cc6c[nH]c7ccccc67)NC(=O)[C@H](C(C)C)NC(=O)[C@H](CC(C)C)NC(=O)[C@H](CCC(=O)O)NC(=O)CNC(=O)[C@H](CC(C)C)NC(=O)[C@H](Cc6c[nH]cn6)NC(=O)[C@H](Cc6c[nH]c7ccccc67)NC(=O)[C@H](C)NC5=O)C(=O)N[C@@H]([C@@H](C)O)C(=O)N5CCC[C@@H]5C(=O)N4C3)nn2)O[C@H](CO)[C@H](O)[C@@H]1O [Compound 84] | > 1000 | < 100 | > 1000 | > 1000 | 
4 | O=C(CCOCCNC(=O)COCCOCCOCCNc1ccc([N+](=O)[O-])cc1[N+](=O)[O-])NCCOCCOCCOCCOC[C@@]12CO[C@@H](O1)[C@H](Nc1nc(Cl)ns1)[C@@H](O)[C@H]2O [Compound 29, N-(1-((1S,2R,3R,4R,5S)-4-((3-chloro-1,2,4-thiadiazol-5-yl)amino)-2,3-dihydroxy-6,8-dioxabicyclo[3.2.1]octan-1-yl)-2,5,8,11-tetraoxatridecan-13-yl)-3-((14-((2,4-dinitrophenyl)amino)-4-oxo-6,9,12-trioxa-3-azatetradecyl)oxy)propanamide] | 100 to 500 |  |  |  | EC50 (HepG2 cells; [4]): < 100 nM; EC50 [1, 5]: < 100 nM
5 | CC(C)C[C@@H]1NC(=O)[C@H](Cc2c[nH]cn2)NC(=O)[C@H](Cc2c[nH]c3ccccc23)NC(=O)[C@H](C)NC(=O)[C@@H](NC(=O)[C@H](CC(=O)O)NC(=O)CCOCCOCCOCCOCCNC(=O)CCCc2cn(CCCCCC(=O)NC(COCCC(=O)NCCOCCOCCOCCOC[C@@H]3CC[C@@H](Nc4nccc(C(F)(F)F)n4)CO3)COCCC(=O)NCCOCCOCCOCCOC[C@@H]3CC[C@@H](Nc4nccc(C(F)(F)F)n4)CO3)nn2)CSSC[C@@H](C(=O)N[C@H](C(N)=O)[C@@H](C)O)NC(=O)[C@H](Cc2c[nH]c3ccccc23)NC(=O)[C@H](C(C)C)NC(=O)[C@H](CC(C)C)NC(=O)[C@H](CCC(=O)O)NC(=O)CNC1=O [Compound 87] | > 1000 |  | > 1000 |  | EC50 [1, 3]: > 1000 nM
6 | O=C(CCOCC(COCCC(=O)NCCOCCOCCOCCOC[C@@]12CO[C@@H](O1)[C@H](Nc1nccc(C(F)(F)F)n1)[C@@H](O)[C@H]2O)NC(=O)COCCOCCOCCNc1ccc([N+](=O)[O-])cc1[N+](=O)[O-])NCCOCCOCCOCCOC[C@@]12CO[C@@H](O1)[C@H](Nc1nccc(C(F)(F)F)n1)[C@@H](O)[C@H]2O [Compound 31, 3,3′-((2-(2-(2-(2-(2-((2,4-dinitrophenyl)amino)ethoxy)ethoxy)ethoxy)acetamido)propane-1,3-diyl)bis(oxy))bis(N-(1-((1S,2R,3R,4R,5S)-2,3-dihydroxy-4-((4-(trifluoromethyl)pyrimidin-2-yl)amino)-6,8-dioxabicyclo[3.2.1]octan-1-yl)-2,5,8,11-tetraoxatridecan-13-yl)propanamide)] | < 100 |  |  |  | EC50 (HepG2 cells; [4]): < 100 nM; EC50 [1, 5]: < 100 nM
7 | CC(C)C[C@@H]1NC(=O)[C@H](Cc2c[nH]cn2)NC(=O)[C@H](Cc2c[nH]c3ccccc23)NC(=O)[C@H](C)NC(=O)[C@@H](NC(=O)[C@H](CC(=O)O)NC(=O)CCOCCOCCOCCOCCNC(=O)CCCc2cn(CCCCCC(=O)NC(COCCC(=O)NCCOCCOCCOCCOC[C@H]3OC[C@H](Nc4nccc(C(F)(F)F)n4)[C@@H](O)[C@H]3O)(COCCC(=O)NCCOCCOCCOCCOC[C@H]3OC[C@H](Nc4nccc(C(F)(F)F)n4)[C@@H](O)[C@H]3O)COCCC(=O)NCCOCCOCCOCCOC[C@H]3OC[C@H](Nc4nccc(C(F)(F)F)n4)[C@@H](O)[C@H]3O)nn2)CSSC[C@@H](C(=O)N[C@H](C(N)=O)[C@@H](C)O)NC(=O)[C@H](Cc2c[nH]c3ccccc23)NC(=O)[C@H](C(C)C)NC(=O)[C@H](CC(C)C)NC(=O)[C@H](CCC(=O)O)NC(=O)CNC1=O [Compound 90] | < 100 |  | < 100 | < 100 | 
8 | CC(C)C[C@@H]1NC(=O)[C@H](Cc2cnc[nH]2)NC(=O)[C@H](Cc2c[nH]c3ccccc23)NC(=O)[C@H](C)NC(=O)[C@@H]2CSSC[C@H](NC(=O)[C@H](Cc3c[nH]c4ccccc34)NC(=O)[C@H](C(C)C)NC(=O)[C@H](CC(C)C)NC(=O)[C@H](CCC(=O)O)NC(=O)CNC1=O)C(=O)N[C@@H]([C@@H](C)O)C(=O)N1CCC[C@@H]1C(=O)N1C[C@@H](NC(=O)CCCc3cn(CCCCCC(=O)NC(COCCC(=O)NCCOCCOCCOCCOC[C@H]4OC[C@H](Nc5cncc(C(F)(F)F)n5)[C@@H](O)[C@H]4O)COCCC(=O)NCCOCCOCCOCCOC[C@H]4OC[C@H](Nc5cncc(C(F)(F)F)n5)[C@@H](O)[C@H]4O)nn3)C[C@H]1C(=O)N[C@@H](CC(=O)O)C(=O)N2 [Compound 52] |  |  |  |  | Kd (IgG; [6]): < 100 nM; EC50 (HepG2 cells; [7]): < 100 nM; EC50 ([1]; HepG2 cells, 100 nM AF488-labeled antibody, 1 hour at 4° C., class symbols, read-out: Ternary Complex EC50): < 100 nM
9 | CC(C)C[C@@H]1NC(=O)[C@H](Cc2c[nH]cn2)NC(=O)[C@H](Cc2c[nH]c3ccccc23)NC(=O)[C@H](C)NC(=O)[C@@H]2CSSC[C@H](NC(=O)[C@H](Cc3c[nH]c4ccccc34)NC(=O)[C@H](C(C)C)NC(=O)[C@H](CC(C)C)NC(=O)[C@H](CCC(=O)O)NC(=O)CNC1=O)C(=O)N[C@@H]([C@@H](C)O)C(=O)N1CCC[C@@H]1C(=O)N1C[C@@H](NC(=O)COCCOCC(=O)NC(COCCC(=O)NCCOCCOCCOCCOC[C@H]3OC[C@H](Nc4cncc(C(F)(F)F)n4)[C@@H](O)[C@H]3O)COCCC(=O)NCCOCCOCCOCCOC[C@H]3OC[C@H](Nc4cncc(C(F)(F)F)n4)[C@@H](O)[C@H]3O)C[C@H]1C(=O)N[C@@H](CC(=O)O)C(=O)N2 [Compound 41] |  |  |  | < 100 | Kd (IgG; [6]): < 100 nM; EC50 (HepG2 cells; [7]): < 100 nM

— patent US12091402B2 (Avilar Therapeutics, Inc., priority 2021, dated 2024)
